The experiment has as its target T1, 3-phosphoinositide-dependent protein kinase 1 (Homo sapiens, UniProt O15530).
T1 sequence (O15530 whole entry): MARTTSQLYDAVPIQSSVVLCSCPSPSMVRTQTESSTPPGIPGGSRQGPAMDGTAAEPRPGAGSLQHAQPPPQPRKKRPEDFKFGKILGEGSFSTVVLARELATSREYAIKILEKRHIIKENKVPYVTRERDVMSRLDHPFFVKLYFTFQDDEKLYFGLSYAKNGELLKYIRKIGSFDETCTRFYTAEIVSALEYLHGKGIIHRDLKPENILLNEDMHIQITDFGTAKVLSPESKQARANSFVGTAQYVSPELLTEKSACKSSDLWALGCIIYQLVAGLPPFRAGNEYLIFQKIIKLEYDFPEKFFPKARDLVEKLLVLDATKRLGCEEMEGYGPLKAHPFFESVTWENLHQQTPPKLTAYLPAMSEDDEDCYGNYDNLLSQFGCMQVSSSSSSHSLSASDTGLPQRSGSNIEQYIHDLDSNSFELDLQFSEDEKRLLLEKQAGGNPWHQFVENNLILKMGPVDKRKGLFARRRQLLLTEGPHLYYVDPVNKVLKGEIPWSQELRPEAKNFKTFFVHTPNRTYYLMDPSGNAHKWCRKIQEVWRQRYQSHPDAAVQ
The experiment can be described thus: In Vitro Kinase Assay. The following applies: pH 7.5; 30 °C. An excerpt: PDK1 protein kinase was expressed in Sf9 insect cells as human recombinant GST-fusion protein by means of the baculovirus expression systems. Protein kinase assay (33PanQinase assay) was used for measuring the kinase activity of PDK1.

Broadly, the IC50 is the concentration that gives 50% inhibition. Low values mean greater potency, high ones weaker potency.

Where only a bound is given, the exact number is not on record here.

Take `O=Nc1c(C2C(=O)Nc3ccc(Br)cc32)[nH]c2ccccc12` (configuration not stated) [5BIO]: the IC50 was over 100 µM. Turning to `O=Nc1c(C2C(=O)Nc3ccccc32)[nH]c2ccccc12` (configuration not stated) [Indirubin-3 -monoxime], the IC50 was over 100 µM.

The record behind these values is BindingDB's records for doi:10.1016/j.chembiol.2007.10.010 (University of Munich, 2007).
